Test results as given in ChEMBL document CHEMBL3045792, “Synthesis, antimicrobial activity, and molecular modeling of novel 4-(3-(4-benzylpiperazin-1-yl)propoxy)-7-methoxy-3-substituted phenyl-2H-chromen-2-one” (2013).
The source made the active and inactive calls. No cut-off for these calls is given here.

What was measured:
Assay type in all cases: functional
Fusarium oxysporum [1] = experiment: Antifungal activity against Fusarium oxysporum assessed as growth inhibition at 900 ug/ml; settings: read-out: IZ
Fusarium oxysporum [2] = experiment: Antifungal activity against Fusarium oxysporum assessed as growth inhibition at 600 ug/ml; settings: read-out: IZ
Fusarium oxysporum [3] = experiment: Antifungal activity against Fusarium oxysporum assessed as growth inhibition at 300 ug/ml; settings: read-out: IZ
Candida albicans [4] = experiment: Antifungal activity against Candida albicans assessed as growth inhibition at 1200 ug/ml; settings: read-out: IZ
Candida albicans [5] = experiment: Antifungal activity against Candida albicans assessed as growth inhibition at 900 ug/ml; settings: read-out: IZ
Candida albicans [6] = experiment: Antifungal activity against Candida albicans assessed as growth inhibition at 600 ug/ml; settings: read-out: IZ
Candida albicans [7] = experiment: Antifungal activity against Candida albicans assessed as growth inhibition at 300 ug/ml; settings: read-out: IZ
Colletotrichum falcatum [8] = experiment: Antifungal activity against Glomerella tucumanensis assessed as growth inhibition at 1200 ug/ml; settings: read-out: IZ
Colletotrichum falcatum [9] = experiment: Antifungal activity against Glomerella tucumanensis assessed as growth inhibition at 900 ug/ml; settings: read-out: IZ
Colletotrichum falcatum [10] = experiment: Antifungal activity against Glomerella tucumanensis assessed as growth inhibition at 600 ug/ml; settings: read-out: IZ
Colletotrichum falcatum [11] = experiment: Antifungal activity against Glomerella tucumanensis assessed as growth inhibition at 300 ug/ml; settings: read-out: IZ
Exserohilum rostratum [12] = experiment: Antifungal activity against Setosphaeria rostrata assessed as growth inhibition at 1200 ug/ml; settings: read-out: IZ
Exserohilum rostratum [13] = experiment: Antifungal activity against Setosphaeria rostrata assessed as growth inhibition at 900 ug/ml; settings: read-out: IZ
Exserohilum rostratum [14] = experiment: Antifungal activity against Setosphaeria rostrata assessed as growth inhibition at 600 ug/ml; settings: read-out: IZ
Exserohilum rostratum [15] = experiment: Antifungal activity against Setosphaeria rostrata assessed as growth inhibition at 300 ug/ml; settings: read-out: IZ
Fusarium oxysporum [16] = experiment: Antifungal activity against Fusarium oxysporum assessed as growth inhibition at 1200 ug/ml; settings: read-out: IZ
Staphylococcus aureus [17] = experiment: Antibacterial activity against Staphylococcus aureus assessed as growth inhibition at 600 ug/ml by NCCLS […] method; settings: read-out: IZ
Bacillus pumilus [18] = experiment: Antibacterial activity against Bacillus pumilus assessed as growth inhibition at 900 ug/ml by NCCLS […] method; settings: read-out: IZ
Bacillus pumilus [19] = experiment: Antibacterial activity against Bacillus pumilus assessed as growth inhibition at 600 ug/ml by NCCLS […] method; settings: read-out: IZ
Priestia megaterium [20] = experiment: Antibacterial activity against Bacillus megaterium assessed as growth inhibition at 900 ug/ml by NCCLS […] method; settings: read-out: IZ
Priestia megaterium [21] = experiment: Antibacterial activity against Bacillus megaterium assessed as growth inhibition at 600 ug/ml by NCCLS […] method; settings: read-out: IZ
Bacillus subtilis [22] = experiment: Antibacterial activity against Bacillus subtilis assessed as growth inhibition at 900 ug/ml by NCCLS […] method; settings: read-out: IZ
Bacillus subtilis [23] = experiment: Antibacterial activity against Bacillus subtilis assessed as growth inhibition at 600 ug/ml by NCCLS […] method; settings: read-out: IZ
Klebsiella aerogenes [24] = experiment: Antibacterial activity against Enterobacter aerogenes assessed as growth inhibition at 900 ug/ml by NCCLS […] method
Klebsiella aerogenes [25] = experiment: Antibacterial activity against Enterobacter aerogenes assessed as growth inhibition at 600 ug/ml by NCCLS […] method
Klebsiella pneumoniae [26] = experiment: Antibacterial activity against Klebsiella pneumoniae assessed as growth inhibition at 900 ug/ml by NCCLS […] method; settings: read-out: IZ
Klebsiella pneumoniae [27] = experiment: Antibacterial activity against Klebsiella pneumoniae assessed as growth inhibition at 600 ug/ml by NCCLS […] method; settings: read-out: IZ
Proteus mirabilis [28] = experiment: Antibacterial activity against Proteus mirabilis assessed as growth inhibition at 900 ug/ml by NCCLS […] method; settings: read-out: IZ
Proteus mirabilis [29] = experiment: Antibacterial activity against Proteus mirabilis assessed as growth inhibition at 600 ug/ml by NCCLS […] method; settings: read-out: IZ
Proteus vulgaris [30] = experiment: Antibacterial activity against Proteus vulgaris assessed as growth inhibition at 900 ug/ml by NCCLS […] method; settings: read-out: IZ
Proteus vulgaris [31] = experiment: Antibacterial activity against Proteus vulgaris assessed as growth inhibition at 600 ug/ml by NCCLS […] method; settings: read-out: IZ
Escherichia coli [32] = experiment: Antibacterial activity against Escherichia coli assessed as growth inhibition at 900 ug/ml by NCCLS […] method; settings: read-out: IZ
Streptococcus pyogenes [33] = experiment: Antibacterial activity against Streptococcus pyogenes assessed as growth inhibition at 600 ug/ml by NCCLS […] method; settings: read-out: IZ
Streptococcus pyogenes [34] = experiment: Antibacterial activity against Streptococcus pyogenes assessed as growth inhibition at 900 ug/ml by NCCLS […] method; settings: read-out: IZ
Staphylococcus aureus [35] = experiment: Antibacterial activity against Staphylococcus aureus assessed as growth inhibition at 900 ug/ml by NCCLS […] method; settings: read-out: IZ
Escherichia coli [36] = experiment: Antibacterial activity against Escherichia coli assessed as growth inhibition at 600 ug/ml by NCCLS […] method; settings: read-out: IZ

Row | Compound | zone of inhibition at 900 µg/mL (Fusarium oxysporum [1]) [mm] | zone of inhibition at 600 µg/mL (Fusarium oxysporum [2]) [mm] | zone of inhibition at 300 µg/mL (Fusarium oxysporum [3]) [mm] | zone of inhibition at 1200 µg/mL (Candida albicans [4]) [mm] | zone of inhibition at 900 µg/mL (Candida albicans [5]) [mm] | zone of inhibition at 600 µg/mL (Candida albicans [6]) [mm] | zone of inhibition at 300 µg/mL (Candida albicans [7]) [mm] | zone of inhibition at 1200 µg/mL (Colletotrichum falcatum [8]) [mm] | zone of inhibition at 900 µg/mL (Colletotrichum falcatum [9]) [mm] | zone of inhibition at 600 µg/mL (Colletotrichum falcatum [10]) [mm] | zone of inhibition at 300 µg/mL (Colletotrichum falcatum [11]) [mm] | zone of inhibition at 1200 µg/mL (Exserohilum rostratum [12]) [mm] | zone of inhibition at 900 µg/mL (Exserohilum rostratum [13]) [mm] | zone of inhibition at 600 µg/mL (Exserohilum rostratum [14]) [mm] | zone of inhibition at 300 µg/mL (Exserohilum rostratum [15]) [mm] | zone of inhibition at 1200 µg/mL (Fusarium oxysporum [16]) [mm] | zone of inhibition at 600 µg/mL (Staphylococcus aureus [17]) [mm] | zone of inhibition at 900 µg/mL (Bacillus pumilus [18]) [mm] | zone of inhibition at 600 µg/mL (Bacillus pumilus [19]) [mm] | zone of inhibition at 900 µg/mL (Priestia megaterium [20]) [mm] | also measured
1 | CCC(C)n1ncn(-c2ccc(N3CCN(c4ccc(OCC5COC(Cn6cncn6)(c6ccc(Cl)cc6Cl)O5)cc4)CC3)cc2)c1=O (configuration not stated) [ITRACONAZOLE] | 20 | 10.8 | 5.46 | 23 | 12 | 5.35 | 2.67 | 33.8 | 18.3 | 9.34 | 4.45 | 27.4 | 14.8 | 7.56 | 3.56 | 34.4 | – | – | – | – | –
2 | COc1ccc2c(OCCCN3CCN(Cc4ccc(F)cc4F)CC3)c(-c3ccccc3)c(=O)oc2c1 | 16.9 | 8.56 | 4.2 | 18.2 | 9.6 | 4.5 | 2.25 | 25.9 | 13.6 | 5.56 | 3.24 | 26.8 | 14.2 | 7.68 | 5.02 | 28.1 | 3.41 | 10.7 | 5.02 | 8.98 | zone of inhibition at 600 µg/mL (Priestia megaterium [21]): 4.48 mm; zone of inhibition at 900 µg/mL (Bacillus subtilis [22]): 10.7 mm; zone of inhibition at 600 µg/mL (Bacillus subtilis [23]): 5.3 mm; growth inhibition (GI) (Klebsiella aerogenes [24]): inactive; growth inhibition (GI) (Klebsiella aerogenes [25]): inactive; zone of inhibition at 900 µg/mL (Klebsiella pneumoniae [26]): 6.34 mm; zone of inhibition at 600 µg/mL (Klebsiella pneumoniae [27]): 3.24 mm; zone of inhibition at 900 µg/mL (Proteus mirabilis [28]): 4.29 mm; zone of inhibition at 600 µg/mL (Proteus mirabilis [29]): 2.65 mm; zone of inhibition at 900 µg/mL (Proteus vulgaris [30]): 8.02 mm; zone of inhibition at 600 µg/mL (Proteus vulgaris [31]): 4.2 mm; zone of inhibition at 900 µg/mL (Escherichia coli [32]): 4.8 mm; zone of inhibition at 600 µg/mL (Streptococcus pyogenes [33]): 5.3 mm; zone of inhibition at 900 µg/mL (Streptococcus pyogenes [34]): 10.2 mm; zone of inhibition at 900 µg/mL (Staphylococcus aureus [35]): 6.48 mm; zone of inhibition at 600 µg/mL (Escherichia coli [36]): 2.6 mm
3 | CN[C@@H]1[C@H](O[C@H]2[C@H](O[C@H]3[C@H](O)[C@@H](O)[C@H](N=C(N)N)[C@@H](O)[C@@H]3N=C(N)N)O[C@@H](C)[C@]2(O)C=O)O[C@@H](CO)[C@H](O)[C@H]1O [STREPTOMYCIN] | – | – | – | – | – | – | – | – | – | – | – | – | – | – | – | – | 10.3 | 14.5 | 7.25 | 12.8 | zone of inhibition at 600 µg/mL (Priestia megaterium [21]): 6.23 mm; zone of inhibition at 900 µg/mL (Bacillus subtilis [22]): 16.2 mm; zone of inhibition at 600 µg/mL (Bacillus subtilis [23]): 8.44 mm; zone of inhibition at 900 µg/mL (Klebsiella aerogenes [24]; read-out: IZ): 8.76 mm; zone of inhibition at 600 µg/mL (Klebsiella aerogenes [25]; read-out: IZ): 4.47 mm; zone of inhibition at 900 µg/mL (Klebsiella pneumoniae [26]): 6.54 mm; zone of inhibition at 600 µg/mL (Klebsiella pneumoniae [27]): 3.24 mm; zone of inhibition at 900 µg/mL (Proteus mirabilis [28]): 20.3 mm; zone of inhibition at 600 µg/mL (Proteus mirabilis [29]): 12.8 mm; zone of inhibition at 900 µg/mL (Proteus vulgaris [30]): 16.1 mm; zone of inhibition at 600 µg/mL (Proteus vulgaris [31]): 8.9 mm; zone of inhibition at 900 µg/mL (Escherichia coli [32]): 6.14 mm; zone of inhibition at 600 µg/mL (Streptococcus pyogenes [33]): 8.19 mm; zone of inhibition at 900 µg/mL (Streptococcus pyogenes [34]): 16.5 mm; zone of inhibition at 900 µg/mL (Staphylococcus aureus [35]): 20 mm; zone of inhibition at 600 µg/mL (Escherichia coli [36]): 3.06 mm
